Test results reported in patent US7381688B2, “Methylthiophene carboxanilides” (Bayer CropScience AG, priority 2002, dated 2008).
Read-outs that look alike come from different tables or passages of the source.

Legend:
Podosphaera leucotricha = assay: Podosphaera test (apple)/protective; assay type: in vivo; conditions: 240 h, protective, evaluation 10 days after inoculation, read-out: Efficacy in %
Method: Podosphaera Test (Apple)/Protective
(§1) • Solvents: 24.5 parts by weight of acetone • 24.5 parts by weight dimethylacetamide • Emulsifier: 1.0 part by weight alkylaryl polyglycol ether
(§2) To produce a suitable preparation of active compound, 1 part by weight of active compound is mixed with the stated amounts of solvents and emulsifier, and the concentrate is diluted with water to the desired concentration.
(§3) To test for protective activity, young plants are sprayed with the preparation of active compound at the stated application rate. After the spray coating has dried on, the plants are inoculated with an aqueous spore suspension of the apple mildew pathogen Podosphaera leucotricha. The plants are then placed in a greenhouse at about 23° C. and a relative atmospheric humidity of about 70%.
(§4) Evaluation is carried out 10 days after the inoculation. 0% means an efficacy which corresponds to that of the control, whereas an efficacy of 100% means that no infection is observed.

[1] = logP determination by HPLC (reverse-phase C 18), EEC Directive 79/831 Annex V.A8; assay type: physicochemical; conditions: reverse-phase C18 HPLC column, 43° C.
Method: The logP value given in the Preparation Examples and tables above are determined in accordance with EEC Directives 79/831 Annex V.A8 by HPLC (High Performance Liquid Chromatography) using a reverse-phase column (C 18). Temperature: 43° C.
The determination is carried out in the acidic range at pH 2.3 using the mobile phases 0.1% aqueous phosphoric acid and acetonitrile; linear gradient from 10% acetonitrile to 90% acetonitrile.
Calibration is carried out using unbranched alkan-2-ones (having 3 to 16 carbon atoms) with known logP values (determination of the logP values by the retention times using linear interpolation between two successive alkanones).

Sphaerotheca fuliginea = assay: Sphaerotheca test (cucumber)/protective; assay type: in vivo; conditions: Podosphaera fuliginea, 168 h, protective, evaluation 7 days after inoculation, read-out: Efficacy in %
Method: Sphaerotheca Test (Cucumber)/Protective
as §1, §2
as §3, with “Sphaerotheca fuliginea.” for “the apple mildew pathogen Podosphaera leucotricha.”
(§5) Evaluation is carried out 7 days after the inoculation. 0% means an efficacy which corresponds to that of the control, whereas an efficacy of 100% means that no infection is observed.

Venturia inaequalis = assay: Venturia test (apple)/protective; assay type: in vivo; conditions: 240 h, protective, evaluation 10 days after inoculation, read-out: Efficacy in %
Method: Venturia Test (Apple)/Protective
• Solvents: 24.5 parts by weight acetone • 24.5 parts by weight dimethylacetamide • Emulsifier: 1.0 part by weight alkylaryl polyglycol ether
To produce a suitable preparation of the active compound, 1 part by weight of active compound is mixed with the stated amounts of solvents and emulsifier, and the concentrate is diluted with water to the desired concentration.
To test for protective activity, young plants are sprayed with the preparation of active compound at the stated application rate. After the spray coating has dried on, the plants are inoculated with an aqueous Conidia suspension of the apple scab pathogen Venturia inaequalis and then remain in an incubation cabin at about 20° C. and 100% relative atmospheric humidity for 1 day.
The plants are then placed in a greenhouse at about 21° C. and a relative atmospheric humidity of about 90%.
as §4

Alternaria solani = assay: Alternaria test (tomato)/protective; assay type: in vivo; conditions: protective, 750 g/ha, evaluation 7 days after inoculation
Method: Alternaria Test (Tomato)/Protective
• Solvent: 49 parts by weight N,N-dimethylformamide • Emulsifier: 1 part by weight of alkylaryl polyglycol ether
(§6) To produce a suitable preparation of active compound, 1 part by weight of active compound is mixed with the stated amounts of solvent and emulsifier, and the concentrate is diluted with water to the desired concentration.
To test for protective activity, young tomato plants are sprayed with the preparation of active compound at the stated application rate. 1 day after the treatment, the plants are inoculated with a spore suspension of Alternaria solani and then remain at 100% relative humidity and 20° C. for 24 h. The plants then remain at 96% relative atmospheric humidity and a temperature of 20° C.
as §5

Pyrenophora teres = Pyrenophora teres test (barley)/protective; assay type: in vivo; conditions: protective, 500 g/ha, evaluation 7 days after inoculation
Method: Pyrenophora teres Test (Barley)/Protective
• Solvent: 25 parts by weight N,N-dimethylacetamide • Emulsifier: 0.6 part by weight alkylaryl polyglycol ether
as §6
To test for protective activity, young plants are sprayed with the preparation of active compound at the stated application rate. After the spray coating has dried on, the plants are sprayed with a conidia suspension of Pyrenophora teres. The plants remain in an incubation cabin at 20° C. and 100% relative atmospheric humidity for 48 hours.
The plants are then placed in a greenhouse at a temperature of about 20° C. and relative atmospheric humidity of about 80%.
as §5

[2] = pH 2.3, HPLC, read-out: logP (pH 2.3)
[3] = Table 1, acidic range at pH 2.3, HPLC, read-out: logP

Cc1ccsc1C(=O)Nc1ccccc1-c1ccc(F)c(Cl)c1 [Example 1, N-(3′-chloro-4′-fluoro-1,1′-biphenyl-2-yl)-3-methyl-2-thiophenecarboxamide]
pest or weed control at 100 g/ha (Podosphaera leucotricha): 100%
chromatographic logP [1, 2]: 3.85
pest or weed control at 100 g/ha (Sphaerotheca fuliginea): 100%
pest or weed control at 100 g/ha (Venturia inaequalis): 100%

Cc1ccsc1C(=O)Nc1ccccc1-c1ccc(Br)cc1 [Example 3]
Efficacy in % (Alternaria solani): 100%
chromatographic logP [1, 3]: 4.12

Cc1ccsc1C(=O)Nc1ccccc1-c1cccc(Cl)c1 [Example 5]
Efficacy in % (Alternaria solani): 100%
pest or weed control at 100 g/ha (Podosphaera leucotricha): 100%
chromatographic logP [1, 3]: 3.97
pest or weed control at 100 g/ha (Sphaerotheca fuliginea): 93%
pest or weed control at 100 g/ha (Venturia inaequalis): 100%

Cc1ccsc1C(=O)Nc1ccccc1-c1ccc(OC(F)(F)F)cc1 [Example 6]
Efficacy in % (Alternaria solani): 100%
pest or weed control at 100 g/ha (Podosphaera leucotricha): 100%
chromatographic logP [1, 3]: 4.33
pest or weed control at 100 g/ha (Sphaerotheca fuliginea): 100%

Cc1ccsc1C(=O)Nc1ccccc1-c1ccc(F)cc1 [Example 8]
Efficacy in % (Alternaria solani): 100%
chromatographic logP [1, 3]: 3.65
Efficacy in % (Pyrenophora teres): 80%

Cc1ccsc1C(=O)Nc1ccccc1-c1ccc(F)c(F)c1 [Example 9]
Efficacy in % (Alternaria solani): 100%
pest or weed control at 100 g/ha (Podosphaera leucotricha): 100%
chromatographic logP [1, 3]: 3.55
pest or weed control at 100 g/ha (Sphaerotheca fuliginea): 100%
Efficacy in % (Pyrenophora teres): 100%
pest or weed control at 100 g/ha (Venturia inaequalis): 100%

Cc1ccsc1C(=O)Nc1ccccc1-c1ccc(Cl)c(F)c1 [Example 10]
Efficacy in % (Alternaria solani): 100%
pest or weed control at 100 g/ha (Podosphaera leucotricha): 100%
chromatographic logP [1, 3]: 3.85
pest or weed control at 100 g/ha (Sphaerotheca fuliginea): 100%
pest or weed control at 100 g/ha (Venturia inaequalis): 100%

Cc1ccsc1C(=O)Nc1ccccc1-c1ccc(OC(F)(F)F)c(F)c1 [Example 11]
pest or weed control at 100 g/ha (Podosphaera leucotricha): 100%
chromatographic logP [1, 3]: 4.13
pest or weed control at 100 g/ha (Sphaerotheca fuliginea): 100%
pest or weed control at 100 g/ha (Venturia inaequalis): 100%

Cc1ccsc1C(=O)Nc1ccccc1-c1ccc(OC(F)(F)F)c(C(F)(F)F)c1 [Example 12]
pest or weed control at 100 g/ha (Podosphaera leucotricha): 100%
chromatographic logP [1, 3]: 4.37
pest or weed control at 100 g/ha (Sphaerotheca fuliginea): 100%

Cc1ccsc1C(=O)Nc1ccccc1-c1ccc(Cl)cc1F [Example 13]
pest or weed control at 100 g/ha (Podosphaera leucotricha): 100%
pest or weed control at 100 g/ha (Sphaerotheca fuliginea): 100%
Efficacy in % (Pyrenophora teres): 94%
pest or weed control at 100 g/ha (Venturia inaequalis): 100%

Cc1ccsc1C(=O)Nc1ccccc1-c1cc(Cl)cc(Cl)c1 [Example 15]
pest or weed control at 100 g/ha (Podosphaera leucotricha): 100%
chromatographic logP [1, 3]: 4.32
pest or weed control at 100 g/ha (Sphaerotheca fuliginea): 100%
pest or weed control at 100 g/ha (Venturia inaequalis): 97%

Cc1ccsc1C(=O)Nc1ccccc1-c1ccc(Cl)cc1Cl [Example 19]
pest or weed control at 100 g/ha (Podosphaera leucotricha): 100%
chromatographic logP [1, 3]: 5.76
pest or weed control at 100 g/ha (Sphaerotheca fuliginea): 96%
pest or weed control at 100 g/ha (Venturia inaequalis): 99%

Cc1ccsc1C(=O)Nc1ccccc1Br [III-1, N-(2-bromophenyl)-3-methyl-2-thiophenecarboxamide]
chromatographic logP [1, 2]: 3.3
